Measured values from US8586020B2, “Poly(organophosphazene) composition for biomaterials” (Korea Institute of Science and Technology, priority 2011, dated 2013).

What was measured:
[1] = system: NIH3T3 cells
[2] = pH 7.4

Row | Max. Gelling Temp. [2] [°C] | Substance | cell viability (MTT) [1]
1 | 42 | Poly[(isoleucineethylester)(aminomethoxy polyethyleneglycol550)(cysteamine)phosphazene] [Example 22] | such a high viability as the cell alone
2 | 34 | Poly[(isoleucineethylester)(aminomethoxy polyethyleneglycol550)(tyramine)phosphazene] [Example 24] | –
3 | 38 | Poly[(isoleucineethylester)(aminomethoxy polyethyleneglycol550)(cysteamine)phosphazene] [Example 21] | such a high viability as the cell alone
